Results reported in ChEMBL document CHEMBL4842357, “Discovery of Novel Apigenin-Piperazine Hybrids as Potent and Selective Poly (ADP-Ribose) Polymerase-1 (PARP-1) Inhibitors for the Treatment of Cancer” (J Med Chem, 2021).
Active and inactive are the calls of the source. The calls are words filed in the database; no cut-off is given here.

Tests used:
SK-OV-3 [1] = experiment: Antitumor activity against human SK-OV-3 cells xenografted in BALB/c nude mouse assessed as relative tumor volume at 50 mg/kg, po administered once daily for 12 days; type: functional; conditions: time 12 day
SK-OV-3 [2] = experiment: Antitumor activity against human SK-OV-3 cells xenografted in BALB/c nude mouse assessed as decrease in tumor volume at 50 mg/kg, po administered once daily measured for 28 days; type: functional, organism-based; conditions: time 28.0 day
[3] = Acute toxicity in ICR mouse assessed as effect on kidney at 1000 mg/kg, po administered only once at day 1 and measured every two days for 14 days; type: organism-based; conditions: in vivo, 336 h, time 14 day
[4] = Hepatotoxicity in ICR mouse assessed as effect on ALT level at 1000 mg/kg, po administered only once at day 1 and measured every two days for 14 days (reference value: 28.6 +/- 6.9 U/L); type: toxicity, organism-based; conditions: in vivo, 336 h, time 14 day
[5] = biological target: T1, Poly [ADP-ribose] polymerase 1 (Homo sapiens, UniProt P09874); experiment: Inhibition of recombinant human full-length PARP-1 using biotinylated substrate
T1 sequence (P09874 whole entry): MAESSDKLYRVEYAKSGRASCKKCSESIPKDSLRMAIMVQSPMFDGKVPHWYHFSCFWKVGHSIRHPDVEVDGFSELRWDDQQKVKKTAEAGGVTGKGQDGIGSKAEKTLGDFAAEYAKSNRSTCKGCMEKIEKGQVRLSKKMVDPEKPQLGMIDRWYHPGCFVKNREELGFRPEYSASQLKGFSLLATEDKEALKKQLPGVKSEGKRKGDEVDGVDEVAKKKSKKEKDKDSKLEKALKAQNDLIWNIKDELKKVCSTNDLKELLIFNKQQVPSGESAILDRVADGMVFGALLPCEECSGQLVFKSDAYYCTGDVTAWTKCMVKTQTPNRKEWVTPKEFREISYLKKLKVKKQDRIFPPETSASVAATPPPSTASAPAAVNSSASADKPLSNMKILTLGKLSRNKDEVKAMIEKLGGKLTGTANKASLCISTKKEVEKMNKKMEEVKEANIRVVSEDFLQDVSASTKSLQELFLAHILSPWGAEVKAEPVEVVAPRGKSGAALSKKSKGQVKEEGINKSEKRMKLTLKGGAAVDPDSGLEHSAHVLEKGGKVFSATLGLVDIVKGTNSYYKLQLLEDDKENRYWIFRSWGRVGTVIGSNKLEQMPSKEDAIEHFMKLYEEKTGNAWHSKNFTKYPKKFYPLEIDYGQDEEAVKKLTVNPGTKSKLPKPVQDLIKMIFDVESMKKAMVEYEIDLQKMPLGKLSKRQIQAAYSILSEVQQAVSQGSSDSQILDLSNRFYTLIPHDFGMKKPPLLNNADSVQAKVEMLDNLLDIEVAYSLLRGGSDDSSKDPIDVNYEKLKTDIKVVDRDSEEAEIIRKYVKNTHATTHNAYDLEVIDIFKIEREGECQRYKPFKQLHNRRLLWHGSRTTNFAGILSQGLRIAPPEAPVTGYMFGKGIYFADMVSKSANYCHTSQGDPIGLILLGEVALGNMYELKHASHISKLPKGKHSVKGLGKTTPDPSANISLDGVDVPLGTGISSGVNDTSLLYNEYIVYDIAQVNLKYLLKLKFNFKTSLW

[6] = Hepatotoxicity in ICR mouse assessed as effect on AST level at 1000 mg/kg, po administered only once at day 1 and measured every two days for 14 days (reference value: 61.5 +/- 3.7 U/L); type: toxicity, organism-based; conditions: in vivo, 336 h, time 14 day
[7] = Renal toxicity in ICR mouse assessed as effect on BUN level at 1000 mg/kg, po administered only once at day 1 and measured every two days for 14 days (reference value: 8.9 +/- 0.9 mmol/L); type: organism-based; conditions: in vivo, 336 h, time 14 day
[8] = Acute toxicity in ICR mouse assessed as effect on spleen at 1000 mg/kg, po administered only once at day 1 and measured every two days for 14 days; type: organism-based; conditions: in vivo, 336 h, time 14 day
A549 [9] = experiment: Cytotoxicity against human A549 cells assessed as reduction in cell viability at 0.1 to 10 uM incubated for 48 hrs by MTT assay; type: functional, cell-based; conditions: dose 0.1-10 µM
Homo sapiens = organism: Homo sapiens; experiment: Selectivity index, ratio of IC50 for inhibition of recombinant human full-length PARP-2 to IC50 for inhibition of recombinant human full-length PARP-1
SK-OV-3 [10] = experiment: Cytotoxicity against human BRCA-1 deficient SK-OV-3 cells assessed as reduction in cell viability at 0.1 to 10 uM incubated for 48 hrs by MTT assay; type: functional, cell-based; conditions: dose 0.1-10 µM
[11] = biological target: T2, Poly [ADP-ribose] polymerase 2 (Homo sapiens, UniProt Q9UGN5); experiment: Inhibition of recombinant human full-length PARP-2 using biotinylated substrate
T2 sequence (Q9UGN5 whole entry): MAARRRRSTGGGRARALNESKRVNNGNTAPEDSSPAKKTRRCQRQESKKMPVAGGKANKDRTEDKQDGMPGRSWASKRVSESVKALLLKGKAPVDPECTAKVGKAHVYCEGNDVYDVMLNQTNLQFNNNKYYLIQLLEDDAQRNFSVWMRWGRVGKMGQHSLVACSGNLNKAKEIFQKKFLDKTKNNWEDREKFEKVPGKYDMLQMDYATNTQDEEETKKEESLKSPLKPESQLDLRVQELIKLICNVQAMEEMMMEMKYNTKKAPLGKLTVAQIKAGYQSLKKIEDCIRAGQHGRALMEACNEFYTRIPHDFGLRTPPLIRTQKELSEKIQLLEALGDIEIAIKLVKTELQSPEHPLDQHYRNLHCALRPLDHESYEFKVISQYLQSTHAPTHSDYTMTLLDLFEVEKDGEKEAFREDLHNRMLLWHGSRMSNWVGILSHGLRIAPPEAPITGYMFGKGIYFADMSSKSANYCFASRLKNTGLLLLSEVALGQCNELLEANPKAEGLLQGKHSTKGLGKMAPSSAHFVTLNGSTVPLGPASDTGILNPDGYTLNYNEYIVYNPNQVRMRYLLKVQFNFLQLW

[12] = Acute toxicity in ICR mouse assessed as change in blood routine at 1000 mg/kg, po administered only once at day 1 and measured every two days for 14 days; type: organism-based; conditions: in vivo, 336 h, time 14 day
A549 [13] = experiment: Cytotoxicity against human A549 cells assessed as induction of CBP cytotoxicity incubated for 48 hrs in presence of CBP by MTT assay; type: functional, cell-based; conditions: dose 0.1-10 µM
[14] = Acute toxicity in ICR mouse assessed as change in body weight at 1000 mg/kg, po administered only once at day 1 and measured every two days for 14 days; type: organism-based; conditions: in vivo, 336 h, time 14 day
CYP2D6 = CYP2D6 (Homo sapiens, UniProt P10635); experiment: Inhibition of CYP2D6 (unknown origin) at 10 uM incubated for 10 to 30 mins in presence of NADPH regeneration system by microplate analysis relative to control; type: ADME; conditions: time 10-30 min
CYP2D6, sequence (P10635 whole entry): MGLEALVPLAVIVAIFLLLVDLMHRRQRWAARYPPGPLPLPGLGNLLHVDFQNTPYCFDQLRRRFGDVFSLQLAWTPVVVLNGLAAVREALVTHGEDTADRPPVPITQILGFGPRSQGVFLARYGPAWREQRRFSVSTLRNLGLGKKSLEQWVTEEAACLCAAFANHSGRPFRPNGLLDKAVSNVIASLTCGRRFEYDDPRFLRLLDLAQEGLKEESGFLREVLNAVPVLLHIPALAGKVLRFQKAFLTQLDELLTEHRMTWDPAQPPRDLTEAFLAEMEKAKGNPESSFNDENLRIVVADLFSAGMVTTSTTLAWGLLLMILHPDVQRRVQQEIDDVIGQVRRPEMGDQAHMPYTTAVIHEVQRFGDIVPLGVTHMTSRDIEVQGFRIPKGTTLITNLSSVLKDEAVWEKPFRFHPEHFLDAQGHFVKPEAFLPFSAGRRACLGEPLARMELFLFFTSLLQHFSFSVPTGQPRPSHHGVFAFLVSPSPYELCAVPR

[15] = biological target: T1, Poly [ADP-ribose] polymerase 1; experiment: Binding affinity to recombinant human PARP-1 by SPR analysis
CYP2C9 = CYP2C9 (Homo sapiens, UniProt P11712); experiment: Inhibition of CYP2C9 (unknown origin) at 10 uM incubated for 10 to 30 mins in presence of NADPH regeneration system by microplate analysis relative to control; type: ADME; conditions: time 10-30 min
CYP2C9, sequence (P11712 whole entry): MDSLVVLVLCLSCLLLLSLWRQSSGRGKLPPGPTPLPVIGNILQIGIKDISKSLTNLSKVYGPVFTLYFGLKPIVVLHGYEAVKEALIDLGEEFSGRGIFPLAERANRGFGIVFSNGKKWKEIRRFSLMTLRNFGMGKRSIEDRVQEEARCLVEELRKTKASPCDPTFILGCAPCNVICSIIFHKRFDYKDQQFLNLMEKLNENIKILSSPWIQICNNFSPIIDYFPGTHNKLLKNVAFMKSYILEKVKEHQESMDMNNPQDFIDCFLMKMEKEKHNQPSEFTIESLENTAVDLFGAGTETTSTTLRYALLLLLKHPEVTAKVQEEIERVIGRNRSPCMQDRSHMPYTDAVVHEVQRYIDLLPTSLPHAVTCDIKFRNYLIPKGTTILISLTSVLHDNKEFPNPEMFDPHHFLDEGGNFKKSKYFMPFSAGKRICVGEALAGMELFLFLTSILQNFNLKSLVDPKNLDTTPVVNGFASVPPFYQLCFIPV

[16] = Stability in rat plasma assessed as compound remaining after 4 hrs; type: ADME, cell-free; conditions: read-out: Stabilty
CYP3A4 = CYP3A4 (Homo sapiens, UniProt P08684); experiment: Inhibition of CYP3A4 (unknown origin) at 10 uM incubated for 10 to 30 mins in presence of NADPH regeneration system by microplate analysis relative to control; type: ADME; conditions: time 10-30 min
CYP3A4, sequence (P08684 whole entry): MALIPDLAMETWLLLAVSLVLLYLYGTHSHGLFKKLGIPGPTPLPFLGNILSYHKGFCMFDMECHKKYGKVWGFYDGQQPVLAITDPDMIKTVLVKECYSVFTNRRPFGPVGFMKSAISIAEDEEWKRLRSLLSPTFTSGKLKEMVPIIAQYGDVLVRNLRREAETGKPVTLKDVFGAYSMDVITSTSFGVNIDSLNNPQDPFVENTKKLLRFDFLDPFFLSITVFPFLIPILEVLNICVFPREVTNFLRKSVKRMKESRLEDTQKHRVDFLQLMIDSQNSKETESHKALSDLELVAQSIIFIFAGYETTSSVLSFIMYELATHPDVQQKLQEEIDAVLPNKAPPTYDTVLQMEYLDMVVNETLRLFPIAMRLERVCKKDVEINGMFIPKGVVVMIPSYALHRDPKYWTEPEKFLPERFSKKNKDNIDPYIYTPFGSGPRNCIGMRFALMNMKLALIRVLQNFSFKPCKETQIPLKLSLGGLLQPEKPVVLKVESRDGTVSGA

[17] = biological target: T2, Poly [ADP-ribose] polymerase 2; experiment: Binding affinity to recombinant human PARP-2 by SPR analysis
CYP1A2 = biological target: T3, CYP1A2 (Homo sapiens, UniProt P05177); experiment: Inhibition of CYP1A2 (unknown origin) at 10 uM incubated for 10 to 30 mins in presence of NADPH regeneration system by microplate analysis relative to control; type: ADME; conditions: time 10-30 min
T3 sequence (P05177 whole entry): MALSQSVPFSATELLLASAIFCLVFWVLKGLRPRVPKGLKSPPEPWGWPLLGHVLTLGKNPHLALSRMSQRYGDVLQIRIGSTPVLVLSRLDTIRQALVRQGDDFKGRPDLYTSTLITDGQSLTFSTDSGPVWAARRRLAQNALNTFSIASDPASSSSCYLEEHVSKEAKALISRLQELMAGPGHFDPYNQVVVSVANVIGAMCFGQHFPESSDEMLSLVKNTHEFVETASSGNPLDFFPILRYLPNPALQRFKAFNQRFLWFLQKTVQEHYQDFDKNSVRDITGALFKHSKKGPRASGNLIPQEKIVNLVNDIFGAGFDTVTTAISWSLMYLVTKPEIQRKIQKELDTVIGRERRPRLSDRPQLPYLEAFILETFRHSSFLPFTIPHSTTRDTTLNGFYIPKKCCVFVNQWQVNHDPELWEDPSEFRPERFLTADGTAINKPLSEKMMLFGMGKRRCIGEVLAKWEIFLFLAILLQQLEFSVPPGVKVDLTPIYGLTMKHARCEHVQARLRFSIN

[18] = Stability in rat plasma assessed as compound remaining after 0.5 hrs; type: ADME, cell-free; conditions: read-out: Stabilty
CYP2C19 = CYP2C19 (Homo sapiens, UniProt P33261); experiment: Inhibition of CYP2C19 (unknown origin) at 10 uM incubated for 10 to 30 mins in presence of NADPH regeneration system by microplate analysis relative to control; type: ADME; conditions: time 10-30 min
CYP2C19, sequence (P33261 whole entry): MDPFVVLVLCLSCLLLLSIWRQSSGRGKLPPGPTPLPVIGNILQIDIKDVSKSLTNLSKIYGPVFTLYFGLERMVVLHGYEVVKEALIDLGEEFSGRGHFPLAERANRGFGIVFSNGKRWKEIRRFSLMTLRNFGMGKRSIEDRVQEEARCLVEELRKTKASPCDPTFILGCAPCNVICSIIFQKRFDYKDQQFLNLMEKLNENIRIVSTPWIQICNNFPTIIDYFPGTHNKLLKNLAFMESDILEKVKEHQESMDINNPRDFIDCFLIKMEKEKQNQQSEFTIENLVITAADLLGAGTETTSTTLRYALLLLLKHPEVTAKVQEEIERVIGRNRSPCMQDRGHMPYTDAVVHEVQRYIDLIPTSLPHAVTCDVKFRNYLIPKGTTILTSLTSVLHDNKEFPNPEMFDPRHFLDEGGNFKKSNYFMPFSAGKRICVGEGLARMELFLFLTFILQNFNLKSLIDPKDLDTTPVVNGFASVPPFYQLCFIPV

O=C(c1cc(Cc2n[nH]c(=O)c3ccccc23)ccc1F)N1CCN(C(=O)C2CC2)CC1 [OLAPARIB]
Activity (SK-OV-3 [1]): 2.12 | Activity (SK-OV-3 [2]): Active

O=C(c1cccs1)N1CCN(Cc2c(O)cc(O)c3c(=O)cc(-c4ccc(O)cc4)oc23)CC1
Activity [3]: Toxic | Activity [4]: 29.6 U/L | IC50 [5]: 15.8 nM | Activity [6]: 77.6 U/L | Activity [7]: 10.3 mmol/L | Activity [8]: Toxic | Activity (A549 [9]): inactive | Ratio IC50 (Homo sapiens): 69.6 | Activity (SK-OV-3 [10]): Active | IC50 [11]: 1100 nM | Activity [12]: Non-Toxic | Activity (A549 [13]): Dose-Dependent Effect | Activity [14]: Non-Toxic

O=c1cc(-c2ccc(O)cc2)oc2c(CN3CCN(Cc4cccs4)CC3)c(O)cc(O)c12
inhibition at 10 µM (CYP2D6): 92.7% | Activity [4]: 27.6 U/L | IC50 [5]: 14.7 nM | Activity [6]: 64.1 U/L | Kd [15]: 55 nM | Activity [7]: 9 mmol/L | inhibition at 10 µM (CYP2C9): 94.7% | remaining at 4 h [16]: 46.2% | inhibition at 10 µM (CYP3A4): 93.4% | Kd [17]: 605 nM | inhibition at 10 µM (CYP1A2): 85.2% | IC50 [11]: 900 nM | remaining at 0.5 h [18]: 83.4% | inhibition at 10 µM (CYP2C19): 70.4% | Activity [12]: Non-Toxic | Activity [14]: Non-Toxic
